Test results taken from article PMC7189019.

Test: On-resin head-to-side-chain macrolactonisation with cyclative cleavage: free Tyr phenol attacks the C-terminal N-acyl-MeNbz (N-acyl-N'-methylurea) resin, 10% DIEA, giving the Tyr phenyl ester
Details: the molecule shown is the open-chain precursor, DCM (models 1-4, rt; 1 and 4 retried in DMF at 60 C), DMF (BPC822, 60 C), scale: 1=cyclic product detected, 0=not detected

CCCCCC(=O)N[C@@H](Cc1ccc(O)cc1)C(=O)N[C@@H](CC(C)C)C(=O)N1CCC[C@H]1C(=O)N[C@@H](Cc1ccccc1)C(=O)N[C@H](C(=O)N[C@H](C(=O)NCC(=O)n1c(=O)n(C)c2ccc(C(=O)NCC(N)=O)cc21)C(C)C)[C@@H](C)CC showed a ring closure, product found (26-membered ring) of 1.

In the case of CC[C@H](C)[C@H](NC(=O)[C@@H](Cc1ccc(OC(C)(C)C)cc1)NC(=O)[C@H](CCC(=O)NC(c1ccccc1)(c1ccccc1)c1ccccc1)NC(=O)[C@@H]1CCCN1C(=O)[C@@H](NC(=O)[C@H](CCC(=O)OC(C)(C)C)NC(=O)[C@@H](NC(=O)[C@H](Cc1ccc(O)cc1)NC(=O)OC(C)(C)C)[C@@H](C)OC(C)(C)C)C(C)C)C(=O)n1c(=O)n(C)c2ccc(C(=O)NCC(N)=O)cc21, the ring closure, product found (29-membered ring, 0.5 h) is reported as 1.

With CCCCCC(=O)N[C@@H](Cc1ccc(O)cc1)C(=O)N[C@@H](C)C(=O)N[C@@H](CC(C)C)C(=O)N1CCC[C@H]1C(=O)N[C@@H](Cc1ccccc1)C(=O)N[C@H](C(=O)N[C@H](C(=O)NCC(=O)n1c(=O)n(C)c2ccc(C(=O)NCC(N)=O)cc21)C(C)C)[C@@H](C)CC the ring closure, product found (29-membered ring) was 1.

CCCCCC(=O)N[C@@H](Cc1ccc(O)cc1)C(=O)NCC(=O)N[C@@H](Cc1ccccc1)C(=O)N[C@@H](C)C(=O)N1CCC[C@H]1C(=O)N[C@@H](C)C(=O)N[C@H](C(=O)N[C@H](C(=O)NCC(=O)n1c(=O)n(C)c2ccc(C(=O)NCC(N)=O)cc21)C(C)C)[C@@H](C)CC gave a ring closure, product found (32-membered ring) of 0.

For CCCCCC(=O)N[C@@H](Cc1ccc(O)cc1)C(=O)N1CCC[C@H]1C(=O)N[C@@H](Cc1ccccc1)C(=O)N[C@H](C(=O)N[C@H](C(=O)NCC(=O)n1c(=O)n(C)c2ccc(C(=O)NCC(N)=O)cc21)C(C)C)[C@@H](C)CC, the ring closure, product found (23-membered ring) was 0.
